Patent US4534979A, “Polyene compounds useful in the treatment of psoriasis and allergic responses” (USV Pharmaceutical Corp., priority 1984, dated 1985)
Read-outs that look alike come from different tables or passages of the source.

What was measured:
[1] = tested on: 5-Lipoxygenese pathway (LOX, Rat PMN); assay: lipoxygenase pathway inhibition assay (14C-arachidonic acid oxidation by neutrophil homogenate); assay type: biochemical; conditions: concentration required for inhibition of the 5-Lipoxygenese pathway; read-out: LOX, Rat PMN (I50)
[2] = tested on: mouse epidermal cell culture; assay: mouse epidermal cell culture, cell proliferation by uptake of tritiated thymidine into DNA; assay type: cell-based; conditions: for percentage uptake in comparison to the standards (TRA, CRA): all time points; for activity at 12 µg/mL: Mus musculus, read-out: percentage uptake of tritiated thymidine relative to vehicle control (100%)
[3] = tested on: mouse epidermal cell culture; assay: mouse epidermal cell culture, anti-differentiation activity (Kreyberg staining and nuclei enumeration); assay type: cell-based; design: key to culture staining by the Kreyberg technique, score (maximum differentiation 10): Kreyberg staining score; 10 = maximum differentiation; key to nuclei enumeration, score (maximum differentiation 0): nuclei enumeration score; 0 = maximum differentiation; conditions: 12 ug/ml; for culture staining by the Kreyberg technique, score (maximum differentiation 10): first number of the ratio; for nuclei enumeration, score (maximum differentiation 0): second number of the ratio
Source text: (§1) Compounds of this invention are active against various skin disorders, such as acne and psoriasis, when tested according to models considered to be predictive of the clinical condition in humans. The models used were the rhino mouse procedure (Kligman, et al., J. Investigative Dermatology 73, 354 (1979)), the rabbit comedolytic procedure (Mills O. H., Kligman A. M.: Assay of Comedolytic Agents in the Rabbit Ear, Animal Models in Dermatology; Relevance to Human Dermatopharmacology and Dermatotoxicology,edited by H. I. Maibach, New York Churchill-Livingston, 1975, pp. 176-183) and the mouse epidermal cell culture procedure (Marcelo, et al., J. Cell Biol., 79, 356 (1978). Testing was done comparatively against standard retinoids known to be effective in these disorders and against a known α-methyl retinoid (2,7-dimethyl-9-(2,6,6-trimethyl-1-cyclohexene-1-yl)-2,3,6,8-nonatetraenoic acid, referred to as DTCNA).
The ratios in the table represent scoring of two measured parameters, culture staining by the Kreyberg technique (maximum differentiation 10) and nuclei enumeration (maximum differentiation 0). Thus the highest possible anti-differentiative activity would be given by the ratio 0/10.

rabbit ear comedones = assay: rabbit comedolytic procedure (rabbit ear model); assay type: in vivo; conditions: concentration of 0.05%, compared with TRA
Source text: as §1
(§2) Activity equal to or greater than the standards and the known compound was shown by 2,5,9-trimethyl-11-(2,6,6-trimethyl-1-cyclohexene-1-yl)-2,4,6,8,10-undecapentaenoic acid (TTCUA).

[4] = tested on: rhino mouse utriculi (pseudocomedones); assay: rhino mouse procedure; assay type: in vivo; conditions: rhino mouse model, concentration 0.05%
Source text: as §1, §2

[5] = 72 h, 12 ug/ml, day 3 of culture exposure to drug
[6] = 120 h, 12 ug/ml, day 5 of culture exposure to drug
[7] = 240 h, 12 ug/ml, day 10 of culture exposure to drug

For `CC\C(=C/C=C(C)/C=C/C=C(C)/C=C/C1=C(C)CCCC1(C)C)C(=O)O` [Example 3B, 5,9-Dimethyl-2-Ethyl-11-(2,6,6-Trimethyl-1-Cyclohexen-1-yl)-2,4,6,8,10-Undecapentaenoic Acid], the IC50 [1] was 13 µM.

`COc1cc(C)c(/C=C/C(C)=C/C=C/C(=O)O)c(C)c1C` [Example 8, 7-(4-Methoxy-2,3,6-Trimethylphenyl)-5-Methyl-Hepta-2,4,6-Trienoic Acid] was tested, and the IC50 [1] was 10 µM.

In the case of `CC(C=CC1=C(C)CCCC1(C)C)=CC=CC=C(C)C(=O)O` [DTCNA], the “percentage uptake in comparison to the standards (TRA, CRA)” value ([2]; 12 ug/ml) is reported as “about the same”, the activity at 12 µg/mL [2, 5] is reported as 53% and the activity at 12 µg/mL [2, 6] is reported as 61%. The activity at 12 µg/mL [2, 7] was 60%, the “culture staining by the Kreyberg technique, score (maximum differentiation 10)” value (“culture staining … (maximum differentiation 10)” below) ([3]; day 3) was 3 and the “nuclei enumeration, score (maximum differentiation 0)” value ([3]; day 3) was 6. The “culture staining … (maximum differentiation 10)” value ([3]; day 6) was 2, the “nuclei enumeration, score (maximum differentiation 0)” value ([3]; day 6) was 6 and the “culture staining … (maximum differentiation 10)” value ([3]; day 10) was 2. For the same compound, the “nuclei enumeration, score (maximum differentiation 0)” value ([3]; day 10) was 5.

In the case of `CC1=C(/C=C/C(C)=C/C=C/C(C)=C/C=C(\C)C(=O)O)C(C)(C)CCC1` [TTCUA, 2,5,9-trimethyl-11-(2,6,6-trimethyl-1-cyclohexene-1-yl)-2,4,6,8,10-undecapentaenoic acid], the “percentage uptake in comparison to the standards (TRA, CRA)” value ([2]; 12 ug/ml) is reported as “up to five fold less”, the activity at 12 µg/mL [2, 5] is reported as 31% and the activity at 12 µg/mL [2, 6] is reported as 15%. For the same compound, the activity at 12 µg/mL [2, 7] was 21%, the “ability to reduce comedone size” value (rabbit ear comedones) was “equal to trans retinoic acid (TRA)” and the “culture staining … (maximum differentiation 10)” value ([3]; day 3) was 2. For the same compound, the “nuclei enumeration, score (maximum differentiation 0)” value ([3]; day 3) was 6, the “culture staining … (maximum differentiation 10)” value ([3]; day 6) was 0.5 and the “nuclei enumeration, score (maximum differentiation 0)” value ([3]; day 6) was 8.5. The “culture staining … (maximum differentiation 10)” value ([3]; day 10) was 1, the “nuclei enumeration, score (maximum differentiation 0)” value ([3]; day 10) was 7.5 and the anti-differentiation activity ([3]; mouse epidermal cell culture) was “more active in both parameters than the two standards and high”. For the same compound, the “epidermal hyperplasia of the skin” value [4] was “moderate epidermal hyperplasia”, the “ability to reduce the amount of horny impaction in the utriculi” value ([4]; compared with TRA) was “equal to TRA” and the “ability to reduce the size of utriculi (pseudocomedones)” value ([4]; compared with TRA) was “equal to TRA”. For the same compound, the skin wrinkling ([4]; versus untreated control animals) was “significantly less wrinkling”.

With `CC1=C(/C=C/C(C)=C/C=C/C(C)=C\C(=O)O)C(C)(C)CCC1` [CRA] the “percentage uptake of tritiated thymidine relative to vehicle control (100%)” value ([2]; 12 ug/ml, day 3 of culture exposure to drug) was 47%, the “percentage uptake of tritiated thymidine relative to vehicle control (100%)” value ([2]; 12 ug/ml, day 5 of culture exposure to drug) was 75% and the “percentage uptake of tritiated thymidine relative to vehicle control (100%)” value ([2]; 12 ug/ml, day 10 of culture exposure to drug) was 64%. For the same compound, the “culture staining … (maximum differentiation 10)” value ([3]; day 3) was 2, the “nuclei enumeration, score (maximum differentiation 0)” value ([3]; day 3) was 7 and the “culture staining … (maximum differentiation 10)” value ([3]; day 6) was 2. The “nuclei enumeration, score (maximum differentiation 0)” value ([3]; day 6) was 7, the “culture staining … (maximum differentiation 10)” value ([3]; day 10) was 2 and the “nuclei enumeration, score (maximum differentiation 0)” value ([3]; day 10) was 6.5.

`CC(/C=C/c1ccc(OCc2ccccc2)cc1)=C\C=C\C(=O)O` [Example 6, 7-(4-Benzyloxyphenyl)-5-Methyl-Hepta-2,4,6-Trienoic Acid] gave an IC50 [1] of 2 µM.

`CC1=C(/C=C/C(C)=C/C=C/C(C)=C/C(=O)O)C(C)(C)CCC1` [TRA, trans retinoic acid] showed an activity at 12 µg/mL ([2]; 72 h) of 77%, an activity at 12 µg/mL ([2]; 120 h) of 53% and an activity at 12 µg/mL ([2]; 240 h) of 36%. For the same compound, the “culture staining … (maximum differentiation 10)” value ([3]; day 3) was 3, the “nuclei enumeration, score (maximum differentiation 0)” value ([3]; day 3) was 5 and the “culture staining … (maximum differentiation 10)” value ([3]; day 6) was 3. The “nuclei enumeration, score (maximum differentiation 0)” value ([3]; day 6) was 5, the “culture staining … (maximum differentiation 10)” value ([3]; day 10) was 2 and the “nuclei enumeration, score (maximum differentiation 0)” value ([3]; day 10) was 6. It also gave an IC50 [1] of 90 µM.
